According to ChEMBL document CHEMBL1938278, “Protective effect of ginseng sapogenins against 2,2'-azobis (1-aminopropane) dihydrochloride (AAPH)-induced LLC-PK₁ cell damage” (2012):

Legend:
Assay type in all cases: functional
Settings in all cases: Sus scrofa, LLC-PK1, 24 h; read-out: Activity
LLC-PK1 [1] = assay: Renoprotective activity against AAPH-induced oxidative damage in pig LLC-PK1 cells assessed as cell viability at 1 ug/ml after 24 hrs by MTT assay relative to control
LLC-PK1 [2] = assay: Renoprotective activity against AAPH-induced oxidative damage in pig LLC-PK1 cells assessed as cell viability at 10 ug/ml after 24 hrs by MTT assay relative to control
LLC-PK1 [3] = assay: Renoprotective activity against AAPH-induced oxidative damage in pig LLC-PK1 cells assessed as cell viability at 5 ug/ml after 24 hrs by MTT assay relative to control

| Compound | viability at 1 µg/mL (LLC-PK1 [1]) [%] | viability at 10 µg/mL (LLC-PK1 [2]) [%] | viability at 5 µg/mL (LLC-PK1 [3]) [%] |
| --- | --- | --- | --- |
| C=C(CCC=C(C)C)[C@H]1CC[C@]2(C)[C@@H]1[C@H](O)C[C@@H]1[C@@]3(C)CC[C@H](O)C(C)(C)[C@@H]3CC[C@]12C | 61.8 | 85.5 | 69.9 |
| C=C(CCC=C(C)C)[C@H]1CC[C@]2(C)[C@@H]1[C@H](O)C[C@@H]1[C@@]3(C)CC[C@H](O)C(C)(C)[C@@H]3[C@@H](O)C[C@]12C | 76.9 | 101 | 94.4 |
| CC(C)=CC/C=C(\C)[C@H]1CC[C@]2(C)[C@@H]1[C@H](O)C[C@@H]1[C@@]3(C)CC[C@H](O)C(C)(C)[C@@H]3CC[C@]12C | 60.7 | 64.6 | 63.7 |
| CC(C)=CC/C=C(\C)[C@H]1CC[C@]2(C)[C@@H]1[C@H](O)C[C@@H]1[C@@]3(C)CC[C@H](O)C(C)(C)[C@@H]3[C@@H](O)C[C@]12C | 61.5 | 63.3 | 63.3 |
| CC(C)=CCC[C@](C)(O)[C@H]1CC[C@]2(C)[C@@H]1[C@H](O)C[C@@H]1[C@@]3(C)CC[C@H](O)C(C)(C)[C@@H]3[C@@H](O)C[C@]12C | 61.1 | 85.7 | 73.3 |
| CC(C)=CCC[C@](C)(O)[C@H]1CC[C@]2(C)[C@@H]1[C@H](O)C[C@@H]1[C@@]3(C)CC[C@H](O)C(C)(C)[C@@H]3CC[C@]12C | 62.2 | 62.6 | 72.6 |
